Measured values published in US20060252807A1, “Novel ortho-terphenyl inhibitors of p38 kinase and methods of treating inflammatory disorders” (Kalypsys, Inc., priority 2005, published 2006).

Target: T1, active p38 alpha enzyme (Upstate Biotechnology) (Homo sapiens, UniProt Q16539)
T1 construct: purchased Upstate Biotechnology
Experiment: p38α biochemical assay (ATP turnover, luminescent detection, Cambrex PKlight)
Conditions: p38α kinase; Table 1 Biological Activity
Method in brief: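 Active p38α phosphorylates MapkapK2 whole protein with 1.4 uM final ATP, 2 h at 30C, in Tris/MOPS buffer with MgCl2, CaCl2, EGTA, EDTA, glycerol, β-mercaptoethanol and 1 mg/ml BSA. Compounds pin-delivered from DMSO; total ATP turnover read by luminescence after PKlight addition.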

T1 sequence (Q16539 whole entry): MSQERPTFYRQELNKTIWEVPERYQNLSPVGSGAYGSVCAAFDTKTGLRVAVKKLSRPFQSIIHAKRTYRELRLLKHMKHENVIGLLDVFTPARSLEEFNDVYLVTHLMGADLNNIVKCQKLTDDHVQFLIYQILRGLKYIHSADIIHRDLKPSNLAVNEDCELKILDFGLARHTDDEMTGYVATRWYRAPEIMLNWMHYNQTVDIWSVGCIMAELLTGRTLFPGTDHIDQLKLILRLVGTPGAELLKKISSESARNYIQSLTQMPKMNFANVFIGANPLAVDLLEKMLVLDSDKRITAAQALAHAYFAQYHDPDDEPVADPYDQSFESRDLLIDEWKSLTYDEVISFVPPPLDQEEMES

SMILES | IC50 [µM]
COc1ccncc1NCc1nc(-c2ccc(F)cc2)c(-c2nc(C(=O)NC(C)C)cs2)o1 [Example 1327] | > 1
Cc1cc(C)c(NCc2nc(-c3ccc(F)cc3)c(-c3nc(C(=O)NC(C)C)cs3)o2)c(C)c1 [Example 1338] | > 1
COc1ccc(NCc2nc(-c3ccc(F)cc3)c(-c3nc(C(=O)NC(C)C)cs3)o2)c(C)c1 [Example 1340] | > 1
CC(C)NC(=O)c1csc(-c2oc(CNc3cnc4ccccc4c3)nc2-c2ccc(F)cc2)n1 [Example 1346] | > 1
CC(C)NC(=O)c1csc(-c2oc(CNc3cc(F)c(F)cc3F)nc2-c2ccc(F)cc2)n1 [Example 1347] | > 1
Cc1cccc(C(C)C)c1NCc1nc(-c2ccc(F)cc2)c(-c2nc(C(=O)NC(C)C)cs2)o1 [Example 1349] | > 1
CC(C)NC(=O)c1csc(-c2oc(CNc3ccc4c(c3)OCCO4)nc2-c2ccc(F)cc2)n1 [Example 1353] | > 1
CC(C)NC(=O)c1csc(-c2oc(CNc3ccccc3-n3cccc3)nc2-c2ccc(F)cc2)n1 [Example 1354] | > 1
Cc1cccc(C(C)(C)C)c1NCc1nc(-c2ccc(F)cc2)c(-c2nc(C(=O)NC(C)C)cs2)o1 [Example 1358] | > 1
CC(C)NC(=O)c1csc(-c2oc(CNc3ccccc3-c3ccccc3)nc2-c2ccc(F)cc2)n1 [Example 1360] | > 1
CC(C)NC(=O)c1csc(-c2oc(CNc3c(C(C)C)cccc3C(C)C)nc2-c2ccc(F)cc2)n1 [Example 1362] | > 1
CC(C)NC(=O)c1csc(-c2oc(CNc3ccc(F)cc3C(F)(F)F)nc2-c2ccc(F)cc2)n1 [Example 1363] | > 1
CC(C)NC(=O)c1csc(-c2oc(CNc3cc(C(F)(F)F)ccc3F)nc2-c2ccc(F)cc2)n1 [Example 1364] | > 1
CCOc1ccc(OCC)c(NCc2nc(-c3ccc(F)cc3)c(-c3nc(C(=O)NC(C)C)cs3)o2)c1 [Example 1366] | > 1
CC(C)NC(=O)c1csc(-c2oc(CNc3cc(Cl)c(Cl)c(Cl)c3)nc2-c2ccc(F)cc2)n1 [Example 1367] | > 1
CC(C)NC(=O)c1csc(-c2oc(CNc3ccccc3C(=O)c3ccccc3)nc2-c2ccc(F)cc2)n1 [Example 1368] | > 1
CC(C)NC(=O)c1csc(-c2oc(CNc3ccccc3COc3ccccc3)nc2-c2ccc(F)cc2)n1 [Example 1369] | > 1
COc1ccc(-c2ccccc2)cc1NCc1nc(-c2ccc(F)cc2)c(-c2nc(C(=O)NC(C)C)cs2)o1 [Example 1370] | > 1
CC(C)NC(=O)c1csc(-c2oc(CNc3ncccc3OCc3ccccc3)nc2-c2ccc(F)cc2)n1 [Example 1371] | > 1
CC(C)NC(=O)c1csc(-c2oc(CNc3cc(C(F)(F)F)ccc3C(F)(F)F)nc2-c2ccc(F)cc2)n1 [Example 1372] | > 1

SMILES | IC50 [µM]
CC(C)NC(=O)c1csc(-c2oc(CNc3cc(C(F)(F)F)cc(C(F)(F)F)c3)nc2-c2ccc(F)cc2)n1 [Example 1373] | > 1
CC(C)NC(=O)c1csc(-c2oc(CNc3ccc(C(F)(F)F)cc3C(F)(F)F)nc2-c2ccc(F)cc2)n1 [Example 1374] | > 1
CC(C)NC(=O)c1csc(-c2c(-c3ccc(F)cc3)noc2CNCCO)n1 [Example 1375] | > 1
CCOC(=O)N1CCC(NCc2onc(-c3ccc(F)cc3)c2-c2nc(C(=O)NC(C)C)cs2)CC1 [Example 1376] | > 1
COCCNCc1onc(-c2ccc(F)cc2)c1-c1nc(C(=O)NC(C)C)cs1 [Example 1377] | > 1
CC(C)NC(=O)c1csc(-c2c(-c3ccc(F)cc3)noc2CNC2CCCc3ccccc32)n1 (centres unmarked) [Example 1378] | > 1
COc1ccc(NCc2onc(-c3ccc(F)cc3)c2-c2nc(C(=O)NC(C)C)cs2)cc1OC [Example 1379] | > 1
CC(C)NC(=O)c1csc(-c2c(-c3ccc(F)cc3)noc2CN(CCC#N)Cc2ccccc2)n1 [Example 1381] | > 1
CNCc1onc(-c2ccc(F)cc2)c1-c1nc(C(=O)NC(C)C)cs1 [Example 1382] | > 1
CCNCc1onc(-c2ccc(F)cc2)c1-c1nc(C(=O)NC(C)C)cs1 [Example 1383] | > 1
C#CCNCc1onc(-c2ccc(F)cc2)c1-c1nc(C(=O)NC(C)C)cs1 [Example 1384] | > 1
CC(C)NC(=O)c1csc(-c2c(-c3ccc(F)cc3)noc2CNCC#N)n1 [Example 1385] | ≤ 1
CC(C)NC(=O)c1csc(-c2c(-c3ccc(F)cc3)noc2CNC2CC2)n1 [Example 1386] | > 1
CC(C)NCc1onc(-c2ccc(F)cc2)c1-c1nc(C(=O)NC(C)C)cs1 [Example 1387] | > 1
CCCNCc1onc(-c2ccc(F)cc2)c1-c1nc(C(=O)NC(C)C)cs1 [Example 1388] | > 1
CC(C)NC(=O)c1csc(-c2c(-c3ccc(F)cc3)noc2CNCCN)n1 [Example 1389] | > 1
CC(C)NC(=O)c1csc(-c2c(-c3ccc(F)cc3)noc2CNCCC#N)n1 [Example 1390] | > 1
CC(C)NC(=O)c1csc(-c2c(-c3ccc(F)cc3)noc2CNC2CCC2)n1 [Example 1391] | > 1
CC(C)NC(=O)c1csc(-c2c(-c3ccc(F)cc3)noc2CNCC2CC2)n1 [Example 1392] | > 1
CCC(C)NCc1onc(-c2ccc(F)cc2)c1-c1nc(C(=O)NC(C)C)cs1 (centres unmarked) [Example 1393] | > 1

Further lines, results first:

IC50 [µM] | SMILES
> 1 | Cc1ccc(C)c(NCc2nc(-c3ccc(F)cc3)c(-c3nc(C(=O)NC(C)C)cs3)o2)c1 [Example 1317]
> 1 | Cc1ccc(NCc2nc(-c3ccc(F)cc3)c(-c3nc(C(=O)NC(C)C)cs3)o2)cc1C [Example 1318]
> 1 | CCc1ccccc1NCc1nc(-c2ccc(F)cc2)c(-c2nc(C(=O)NC(C)C)cs2)o1 [Example 1319]
> 1 | Cc1cccc(NCc2nc(-c3ccc(F)cc3)c(-c3nc(C(=O)NC(C)C)cs3)o2)c1C [Example 1321]
> 1 | Cc1ccc(NCc2nc(-c3ccc(F)cc3)c(-c3nc(C(=O)NC(C)C)cs3)o2)c(C)c1 [Example 1322]
> 1 | Cc1cc(C)cc(NCc2nc(-c3ccc(F)cc3)c(-c3nc(C(=O)NC(C)C)cs3)o2)c1 [Example 1323]
> 1 | COc1cccc(NCc2nc(-c3ccc(F)cc3)c(-c3nc(C(=O)NC(C)C)cs3)o2)c1 [Example 1324]
> 1 | COc1ccc(NCc2nc(-c3ccc(F)cc3)c(-c3nc(C(=O)NC(C)C)cs3)o2)cc1 [Example 1325]
> 1 | COc1ccccc1NCc1nc(-c2ccc(F)cc2)c(-c2nc(C(=O)NC(C)C)cs2)o1 [Example 1326]
> 1 | Cc1ccc(NCc2nc(-c3ccc(F)cc3)c(-c3nc(C(=O)NC(C)C)cs3)o2)cc1F [Example 1328]
> 1 | Cc1c(F)cccc1NCc1nc(-c2ccc(F)cc2)c(-c2nc(C(=O)NC(C)C)cs2)o1 [Example 1329]
> 1 | CC(C)NC(=O)c1csc(-c2oc(CNc3cc(F)cc(F)c3)nc2-c2ccc(F)cc2)n1 [Example 1330]
> 1 | CC(C)NC(=O)c1csc(-c2oc(CNc3ccc(F)cc3F)nc2-c2ccc(F)cc2)n1 [Example 1331]
> 1 | CC(C)NC(=O)c1csc(-c2oc(CNc3ccc4c(c3)CCC4)nc2-c2ccc(F)cc2)n1 [Example 1333]
> 1 | CC(C)NC(=O)c1csc(-c2oc(CNc3ccccc3C(C)C)nc2-c2ccc(F)cc2)n1 [Example 1334]
> 1 | CC(=O)c1cccc(NCc2nc(-c3ccc(F)cc3)c(-c3nc(C(=O)NC(C)C)cs3)o2)c1 [Example 1335]
> 1 | CC(=O)c1ccc(NCc2nc(-c3ccc(F)cc3)c(-c3nc(C(=O)NC(C)C)cs3)o2)cc1 [Example 1336]

IC50 [µM] | SMILES
> 1 | CCc1cccc(C)c1NCc1nc(-c2ccc(F)cc2)c(-c2nc(C(=O)NC(C)C)cs2)o1 [Example 1337]
> 1 | CC(C)NC(=O)c1csc(-c2oc(CNc3ccc4c(c3)OCO4)nc2-c2ccc(F)cc2)n1 [Example 1339]
> 1 | CCOc1cccc(NCc2nc(-c3ccc(F)cc3)c(-c3nc(C(=O)NC(C)C)cs3)o2)c1 [Example 1341]
> 1 | CCOc1ccccc1NCc1nc(-c2ccc(F)cc2)c(-c2nc(C(=O)NC(C)C)cs2)o1 [Example 1342]
> 1 | CSc1ccccc1NCc1nc(-c2ccc(F)cc2)c(-c2nc(C(=O)NC(C)C)cs2)o1 [Example 1343]
> 1 | Cc1c(Cl)cccc1NCc1nc(-c2ccc(F)cc2)c(-c2nc(C(=O)NC(C)C)cs2)o1 [Example 1344]
> 1 | Cc1ccc(NCc2nc(-c3ccc(F)cc3)c(-c3nc(C(=O)NC(C)C)cs3)o2)cc1Cl [Example 1345]
> 1 | CC(C)NC(=O)c1csc(-c2oc(CNc3ccccc3C(C)(C)C)nc2-c2ccc(F)cc2)n1 [Example 1348]
> 1 | CC(C)NC(=O)c1csc(-c2oc(CNc3ccc4ncsc4c3)nc2-c2ccc(F)cc2)n1 [Example 1350]
> 1 | CC(=O)Nc1ccc(NCc2nc(-c3ccc(F)cc3)c(-c3nc(C(=O)NC(C)C)cs3)o2)cc1 [Example 1351]
> 1 | CC(=O)Nc1ccc(NCc2nc(-c3ccc(F)cc3)c(-c3nc(C(=O)NC(C)C)cs3)o2)cn1 [Example 1352]
> 1 | CC(C)NC(=O)c1csc(-c2oc(CNc3ccc(C(F)(F)F)cc3)nc2-c2ccc(F)cc2)n1 [Example 1355]
> 1 | CC(C)NC(=O)c1csc(-c2oc(CNc3cccc(C(F)(F)F)c3)nc2-c2ccc(F)cc2)n1 [Example 1356]
> 1 | CC(C)NC(=O)c1csc(-c2oc(CNc3ccc(Cl)c(Cl)c3)nc2-c2ccc(F)cc2)n1 [Example 1357]
> 1 | CC(C)NC(=O)c1csc(-c2oc(CNc3ccc(N(C)C)cc3)nc2-c2ccc(F)cc2)n1 [Example 1359]
> 1 | CC(C)NC(=O)c1csc(-c2oc(CNc3ccc(OC(F)(F)F)cc3)nc2-c2ccc(F)cc2)n1 [Example 1361]
> 1 | CC(C)NC(=O)c1csc(-c2oc(CNc3ccc(F)c(C(F)(F)F)c3)nc2-c2ccc(F)cc2)n1 [Example 1365]
